The source of these data is patent US5886146A, “Inhibitors of thrombosis” (Corvas International, Inc., priority 1995, dated 1999).

One experiment deals with human α-thrombin (Homo sapiens, UniProt P00734). In words: Thrombin assay, chromogenic substrate Pefachrome t-PA. It counts as biochemical. The conditions noted are these: purified human enzyme 0.25 nM, 30 minute incubation, substrate 300 μM, HBSA pH 7.5. How it is done: The buffer used for all assays was HBSA (10 mM HEPES, pH 7.5, 150 mM sodium chloride, 0.1% bovine serum albumin). […] Following a 30 minute incubation at ambient temperature, 50 μL of the substrate at the concentrations specified below, was added to the wells yielding a final total volume of 200 μL.
Thrombin catalytic activity was determined using the chromogenic substrate Pefachrome t-PA (CH3 SO2 -D-hexahydrotyrosine-glycyl-L-arginine-p-nitroaniline, obtained from Pentapharm Ltd.).

The next experiment addresses T1, Human factor Xa (Homo sapiens, UniProt P00742).
T1 construct: Human factor Xa was prepared from purified human factor X obtained from Enzyme Research Laboratories; purchased Enzyme Research Laboratories
Briefly: Factor Xa assay, chromogenic substrate S2765. The format is biochemical. As to conditions: purified human enzyme 0.5 nM, 30 minute incubation, substrate 250 μM, HBSA pH 7.5. Here is the method: The buffer used for all assays was HBSA (10 mM HEPES, pH 7.5, 150 mM sodium chloride, 0.1% bovine serum albumin). […] Following a 30 minute incubation at ambient temperature, 50 μL of the substrate at the concentrations specified below, was added to the wells yielding a final total volume of 200 μL. The initial velocity of chromogenic substrate hydrolysis was measured by the change in absorbance at 405 nm using a Thermo Max® Kinetic Microplate Reader over a 5 minute period in which less than 5% of the added substrate was utilized.
Factor Xa catalytic activity was determined using the substrate, S2765 (N-α-benzyloxycarbonyl-D-argininyl-L-glycyl-L-arginine-p-nitroanilide dihydrochloride) which was obtained from Kabi Diagnostica. […] Human factor Xa was prepared from purified human factor X obtained from Enzyme Research Laboratories according to the method described by Bock, P. E. et al., Archives of Biochem. Biophys. 273: 375 (1989). The enzyme was diluted into HBSA prior to the assay in which the final concentration was 0.5 nM.

In the next experiment the target is human plasmin (Homo sapiens, UniProt P00747). Briefly: Plasmin assay, chromogenic substrate S-2251. The format is biochemical. As to conditions: purified human enzyme 1.0 nM, 30 minute incubation, substrate 300 μM, HBSA pH 7.5.
human plasmin, sequence (P00747 581-810 limits assumed): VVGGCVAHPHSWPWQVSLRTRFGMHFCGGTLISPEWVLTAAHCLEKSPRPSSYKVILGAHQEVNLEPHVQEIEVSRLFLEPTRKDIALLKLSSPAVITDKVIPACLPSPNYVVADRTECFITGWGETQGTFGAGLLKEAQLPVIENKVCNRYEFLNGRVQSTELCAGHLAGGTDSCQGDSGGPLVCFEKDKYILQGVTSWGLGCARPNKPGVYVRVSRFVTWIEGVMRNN
human plasmin, sequence (P00747 97-580 partner limits assumed): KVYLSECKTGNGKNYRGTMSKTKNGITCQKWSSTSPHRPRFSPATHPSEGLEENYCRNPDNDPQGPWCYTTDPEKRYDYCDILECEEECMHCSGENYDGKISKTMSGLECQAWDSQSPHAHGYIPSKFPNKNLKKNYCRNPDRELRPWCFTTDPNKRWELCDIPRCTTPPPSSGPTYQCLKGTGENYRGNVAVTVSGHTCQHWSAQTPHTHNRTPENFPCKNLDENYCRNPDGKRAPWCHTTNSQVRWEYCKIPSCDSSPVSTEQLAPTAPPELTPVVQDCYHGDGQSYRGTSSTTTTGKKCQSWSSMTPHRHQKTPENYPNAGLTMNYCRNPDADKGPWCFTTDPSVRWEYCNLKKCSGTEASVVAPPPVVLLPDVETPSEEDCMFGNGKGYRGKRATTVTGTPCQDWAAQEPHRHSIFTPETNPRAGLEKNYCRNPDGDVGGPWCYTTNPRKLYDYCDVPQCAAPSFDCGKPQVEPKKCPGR
In experiment [1] the test system is FeCl3-induced platelet-dependent arterial thrombosis. It counts as in vivo, rat. The conditions noted are these: for Clot Size: mean ± S.E.M. The text has this: Res., 60: 269-280 (1990). […] Res., 60: 269-280 (1990). […] The animals were then euthanized.

Like-named read-outs stand apart in the source and are kept apart here. Peptide text beside a SMILES is read from it. * marks the point of attachment. Hydrocinnamoyl = O=C(CCc1ccccc1)*

T1 sequence (P00742 235-488 limits assumed): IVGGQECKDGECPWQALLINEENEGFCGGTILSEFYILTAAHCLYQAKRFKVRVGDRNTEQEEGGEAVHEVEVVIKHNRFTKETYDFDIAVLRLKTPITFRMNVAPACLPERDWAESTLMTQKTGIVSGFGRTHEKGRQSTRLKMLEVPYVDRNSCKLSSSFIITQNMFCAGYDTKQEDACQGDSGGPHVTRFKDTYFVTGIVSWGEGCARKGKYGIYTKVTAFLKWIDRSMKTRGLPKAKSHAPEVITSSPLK
T1 sequence (P00742 41-179 partner limits assumed): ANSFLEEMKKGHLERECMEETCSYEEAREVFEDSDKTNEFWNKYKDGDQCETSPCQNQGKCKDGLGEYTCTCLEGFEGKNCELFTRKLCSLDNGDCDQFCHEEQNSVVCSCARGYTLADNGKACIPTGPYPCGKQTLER
Experimental for human plasmin: Plasmin catalytic activity was determined using the chromogenic substrate, S-2251 [D-valyl-L-leucyl-L-lysine-p-nitroanilide dihydrochloride], which was obtained from Kabi Diagnostica.

The term IC50 denotes the point on the concentration scale where inhibition reaches its midpoint. For `CCCC(CCC)C(=O)N[C@@H](CC(=O)O)C(=O)N1CCC[C@H]1C(=O)N[C@H](C=O)CCCNC(=N)N` [2PrPent-Asp-Pro-Arg-al, N-(2-propylpentanoyl)-L-aspartyl-L-prolyl-L-argininal], the IC50 against human α-thrombin was 6.2 nM; on Human factor Xa, 241 nM.

As for `CC(C)CCC(=O)NC(Cc1nnn[nH]1)C(=O)N1CCC[C@H]1C(=O)N[C@H](C=O)CCCNC(=N)N` (stereo partly drawn) [4MeV-Ala(Tzl)-Pro-Arg-al, 3-tetrazolyl-2-(4-methylvaleroylamido) propionyl-L-prolyl-L-argininal], the IC50 at human plasmin amounted to 500 nM.

As to `CC(C)CCC(=O)N[C@@H](CC(=O)O)C(=O)N1CCC[C@H]1C(=O)N[C@H](C=O)CCCNC(=N)N` [4MeV-Asp-Pro-Arg-al, N-(4-methylpentanoyl)-L-aspartyl-L-prolyl-L-argininal], the IC50 was 139 nM against human α-thrombin and 74 nM against Human factor Xa.

For the compound `N=C(N)NCCC[C@@H](C=O)NC(=O)[C@@H]1CCCN1C(=O)[C@H](CC(=O)O)NC(=O)CCC1CCCCC1` [ChxPA-Asp-Pro-Arg-al, N-(3-cyclohexanepropionyl)-L-aspartyl-L-prolyl-L-argininal], the IC50 against human α-thrombin amounted to 41 nM; at Human factor Xa, 24 nM.

Regarding `N=C(N)NCCC[C@@H](C=O)NC(=O)[C@@H]1CCCN1C(=O)[C@H](CC(=O)O)NC(=O)CCc1ccccc1` [HCA-Asp-Pro-Arg-al, N-(3-phenylpropionyl)-L-aspartyl-L-prolyl-L-argininal] (Hydrocinnamoyl-Asp-Pro-Arg-aldehyde), the IC50 on human α-thrombin amounted to 92 nM; against Human factor Xa, 52 nM. Also, the “Clot Size” value in experiment [1] (Group 1, 25 μg/kg/min i.v. infusion) came to 48.38 ± 24.71%; in experiment [1] (Group 2, 50 μg/kg/min i.v. infusion), 22.38 ± 21.0%; in experiment [1] (Group 3, 100 μg/kg/min i.v. infusion), 3.38 ± 5.44%. The “Efficacy as an antithrombotic agent (in words)” value in experiment [1] (rat FeCl3 model, i.v. infusion) was “reduction in the incidence of occlusion and in clot size”.
